Results: US8637525B2, “Compounds for the reduction of beta-amyloid production” (Bristol-Myers Squibb Company, priority 2009, dated 2014)
pIC50: −log10 of the molar value.

System: Aβ1-42 production
Assay: Cellular assay for inhibition of Aβ1-42 production (H4 APP751 SWE clone 8.20)
Format: cell-based
Conditions: 19 h, H4 APP751 SWE clone 8.20 cells, 19 h incubation; class symbols; read-out: Activity Rating (Aβ42 cellular IC50)
How it was run: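 Cells incubate with compound for 19 h (37 °C, 5% CO2), the plate is briefly spun, and antibody mix is added straight to the wells: Wallac-conjugated 565 against the Aβ42 C-terminal neoepitope and APC-conjugated 26D6 against the Aβ N-terminus. After overnight sealing at 4 °C, signal is counted and IC50 fitted.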

| pIC50 | Structure (SMILES) |
| --- | --- |
| 7.00 to 8.00 | CNc1nc(Nc2ccc(-n3ncnc3C)c(F)c2)nc2c1CCC2c1ccc(F)cc1 (single isomer, unassigned) [Example 26A, N^2-(3-fluoro-4-(5-methyl-1H-1,2,4-triazol-1-yl)phenyl)-7-(4-fluorophenyl)-N^4-methyl-6,7-dihydro-5H-cyclopenta[d]pyrimidine-2,4-diamine] |
| 7.00 to 8.00 | COc1cc(Nc2nc3c(c(N4CCC(O)(C(F)(F)F)C4)n2)CCC3c2ccc(F)cc2)ccc1-n1cnc(Cl)c1 (single isomer, unassigned) [Example 27, 1-(2-(4-(4-chloro-1H-imidazol-1-yl)-3-methoxyphenylamino)-7-(4-fluorophenyl)-6,7-dihydro-5H-cyclopenta[d]pyrimidin-4-yl)-3-(trifluoromethyl)pyrrolidin-3-ol] |
| 7.00 to 8.00 | COc1cc(Nc2nc3c(c(N4CCC(N(C)C)C4)n2)CCC3c2ccc(F)cc2)ccc1-n1cnc(Cl)c1 (single isomer, unassigned) [Example 29A, N-(4-(4-chloro-1H-imidazol-1-yl)-3-methoxyphenyl)-4-(3-(dimethylamino)pyrrolidin-1-yl)-7-(4-fluorophenyl)-6,7-dihydro-5H-cyclopenta[d]pyrimidin-2-amine] |
| 7.00 to 8.00 | COc1cc(Nc2nc3c(c(N4CCN(C)CC4)n2)CCC3c2ccc(F)cc2)ccc1-n1cnc(Cl)c1 (single isomer, unassigned) [Example 30A, N-(4-(4-chloro-1H-imidazol-1-yl)-3-methoxyphenyl)-7-(4-fluorophenyl)-4-(4-methylpiperazin-1-yl)-6,7-dihydro-5H-cyclopenta[d]pyrimidin-2-amine] |
| 7.00 to 8.00 | COc1cc(Nc2nc3c(c(N4CC[C@H](F)C4)n2)CCC3c2ccc(F)cc2)ccc1-n1cnc(Cl)c1 (single isomer, unassigned) [Example 36] |
| 8.00 to 8.82 | COc1cc(Nc2nc3c(c(N4CC[C@H](F)C4)n2)CCC3c2ccc(F)cc2)ccc1-n1cnc(Cl)c1 (single isomer, unassigned) [Example 37] |
| 8.00 to 8.82 | CNc1nc(Nc2ccc(-n3cnc(C)n3)c(OC)c2)nc2c1CCC2c1ccc(F)cc1 (single isomer, unassigned) [Example 44A, 7-(4-fluorophenyl)-N2-(3-methoxy-4-(3-methyl-1H-1,2,4-triazol-1-yl)phenyl)-N4-methyl-6,7-dihydro-5H-cyclopenta[d]pyrimidine-2,4-diamine] |

Same assay, conditions: 19 h, H4 APP751 SWE clone 8.20 cells, 19 h incubation; read-out: Activity Rating (Aβ42 cellular IC50), numeric value

| pIC50 | Structure (SMILES) |
| --- | --- |
| 7.23 | COc1cc(Nc2nc3c(c(N4CCCC4C)n2)CCC3c2ccc(F)cc2)ccc1-n1cnc(Cl)c1 (single isomer, unassigned) [Example 19B, N-(4-(4-chloro-1H-imidazol-1-yl)-3-methoxyphenyl)-7-(4-fluorophenyl)-4-(2-methylpyrrolidin-1-yl)-6,7-dihydro-5H-cyclopenta[d]pyrimidin-2-amine] |
| 6.70 | CCC1CCCN1c1nc(Nc2ccc(-n3cnc(Cl)c3)c(OC)c2)nc2c1CCC2c1ccc(F)cc1 (single isomer, unassigned) [Example 24B, N-(4-(4-chloro-1H-imidazol-1-yl)-3-methoxyphenyl)-4-(2-ethylpyrrolidin-1-yl)-7-(4-fluorophenyl)-6,7-dihydro-5H-cyclopenta[d]pyrimidin-2-amine] |
| 6.64 | COc1cc(Nc2nc3c(c(N4CCN(C)CC4)n2)CCC3c2ccc(F)cc2)ccc1-n1cnc(Cl)c1 (single isomer, unassigned) [Example 30B, N-(4-(4-chloro-1H-imidazol-1-yl)-3-methoxyphenyl)-7-(4-fluorophenyl)-4-(4-methylpiperazin-1-yl)-6,7-dihydro-5H-cyclopenta[d]pyrimidin-2-amine] |
| 7.92 | COc1cc(Nc2nc3c(c(N4CC[C@@H](F)C4)n2)CCC3c2ccc(F)cc2)ccc1-n1cnc(Cl)c1 (single isomer, unassigned) [Example 38A] |

Same assay, conditions: H4 APP751 SWE clone 8.20 cells, 19 h incubation; class symbols; read-out: Activity Rating (Aβ42 cellular IC50)

| pIC50 | Structure (SMILES) |
| --- | --- |
| 7.00 to 8.00 | COc1cc(Nc2nc3c(c(N4CCCC4C)n2)CCC3c2ccc(F)cc2)ccc1-n1cnc(Cl)c1 (single isomer, unassigned) [Example 19A, N-(4-(4-chloro-1H-imidazol-1-yl)-3-methoxyphenyl)-7-(4-fluorophenyl)-4-(2-methylpyrrolidin-1-yl)-6,7-dihydro-5H-cyclopenta[d]pyrimidin-2-amine] |
| 8.00 to 8.82 | COc1cc(Nc2nc3c(c(N4CCCC4C)n2)CCC3c2ccc(F)cc2)ccc1-n1cnc(Cl)c1 (single isomer, unassigned) [Example 20, N-(4-(4-chloro-1H-imidazol-1-yl)-3-methoxyphenyl)-7-(4-fluorophenyl)-4-(2-methylpyrrolidin-1-yl)-6,7-dihydro-5H-cyclopenta[d]pyrimidin-2-amine] |
| 8.00 to 8.82 | COc1cc(Nc2nc3c(c(N4CCCC4C)n2)CCC3c2ccc(F)cc2)ccc1-n1cnc(Cl)c1 (single isomer, unassigned) [Example 20A, N-(4-(4-chloro-1H-imidazol-1-yl)-3-methoxyphenyl)-7-(4-fluorophenyl)-4-(2-methylpyrrolidin-1-yl)-6,7-dihydro-5H-cyclopenta[d]pyrimidin-2-amine] |
| 7.00 to 8.00 | COc1cc(Nc2nc3c(c(N4CCCC4C)n2)CCC3c2ccc(F)cc2)ccc1-n1cnc(Cl)c1 (single isomer, unassigned) [Example 20B, N-(4-(4-chloro-1H-imidazol-1-yl)-3-methoxyphenyl)-7-(4-fluorophenyl)-4-(2-methylpyrrolidin-1-yl)-6,7-dihydro-5H-cyclopenta[d]pyrimidin-2-amine] |
| 7.00 to 8.00 | COc1cc(Nc2nc3c(c(N4C[C@@H](C)O[C@@H](C)C4)n2)CCC3c2ccc(F)cc2)ccc1-n1cnc(Cl)c1 (single isomer, unassigned) [Example 21A] |
| 6.00 to 7.00 | COc1cc(Nc2nc3c(c(N4C[C@@H](C)O[C@@H](C)C4)n2)CCC3c2ccc(F)cc2)ccc1-n1cnc(Cl)c1 (single isomer, unassigned) [Example 21B] |
| 7.00 to 8.00 | CCC1CCCN1c1nc(Nc2ccc(-n3cnc(Cl)c3)c(OC)c2)nc2c1CCC2c1ccc(F)cc1 (single isomer, unassigned) [Example 23, N-(4-(4-chloro-1H-imidazol-1-yl)-3-methoxyphenyl)-4-(2-ethylpyrrolidin-1-yl)-7-(4-fluorophenyl)-6,7-dihydro-5H-cyclopenta[d]pyrimidin-2-amine] |
| 7.00 to 8.00 | CCC1CCCN1c1nc(Nc2ccc(-n3cnc(Cl)c3)c(OC)c2)nc2c1CCC2c1ccc(F)cc1 (single isomer, unassigned) [Example 23A, N-(4-(4-chloro-1H-imidazol-1-yl)-3-methoxyphenyl)-4-(2-ethylpyrrolidin-1-yl)-7-(4-fluorophenyl)-6,7-dihydro-5H-cyclopenta[d]pyrimidin-2-amine] |
| 6.00 to 7.00 | CCC1CCCN1c1nc(Nc2ccc(-n3cnc(Cl)c3)c(OC)c2)nc2c1CCC2c1ccc(F)cc1 (single isomer, unassigned) [Example 23B, N-(4-(4-chloro-1H-imidazol-1-yl)-3-methoxyphenyl)-4-(2-ethylpyrrolidin-1-yl)-7-(4-fluorophenyl)-6,7-dihydro-5H-cyclopenta[d]pyrimidin-2-amine] |
| 7.00 to 8.00 | CCC1CCCN1c1nc(Nc2ccc(-n3cnc(Cl)c3)c(OC)c2)nc2c1CCC2c1ccc(F)cc1 (single isomer, unassigned) [Example 24, N-(4-(4-chloro-1H-imidazol-1-yl)-3-methoxyphenyl)-4-(2-ethylpyrrolidin-1-yl)-7-(4-fluorophenyl)-6,7-dihydro-5H-cyclopenta[d]pyrimidin-2-amine] |
| 7.00 to 8.00 | CCC1CCCN1c1nc(Nc2ccc(-n3cnc(Cl)c3)c(OC)c2)nc2c1CCC2c1ccc(F)cc1 (single isomer, unassigned) [Example 24A, N-(4-(4-chloro-1H-imidazol-1-yl)-3-methoxyphenyl)-4-(2-ethylpyrrolidin-1-yl)-7-(4-fluorophenyl)-6,7-dihydro-5H-cyclopenta[d]pyrimidin-2-amine] |
| 7.00 to 8.00 | CNc1nc(Nc2ccc(-n3ncnc3C)c(F)c2)nc2c1CCC2c1ccc(F)cc1 (single isomer, unassigned) [Example 26B, N^2-(3-fluoro-4-(5-methyl-1H-1,2,4-triazol-1-yl)phenyl)-7-(4-fluorophenyl)-N^4-methyl-6,7-dihydro-5H-cyclopenta[d]pyrimidine-2,4-diamine] |
| 7.00 to 8.00 | COc1cc(Nc2nc3c(c(N4CCC(O)(C(F)(F)F)C4)n2)CCC3c2ccc(F)cc2)ccc1-n1cnc(Cl)c1 (single isomer, unassigned) [Example 28, 1-(2-(4-(4-chloro-1H-imidazol-1-yl)-3-methoxyphenylamino)-7-(4-fluorophenyl)-6,7-dihydro-5H-cyclopenta[d]pyrimidin-4-yl)-3-(trifluoromethyl)pyrrolidin-3-ol] |
| 7.00 to 8.00 | COc1cc(Nc2nc3c(c(N4CCC(O)(C(F)(F)F)C4)n2)CCC3c2ccc(F)cc2)ccc1-n1cnc(Cl)c1 (single isomer, unassigned) [Example 28A, 1-(2-(4-(4-chloro-1H-imidazol-1-yl)-3-methoxyphenylamino)-7-(4-fluorophenyl)-6,7-dihydro-5H-cyclopenta[d]pyrimidin-4-yl)-3-(trifluoromethyl)pyrrolidin-3-ol] |
| 7.00 to 8.00 | COc1cc(Nc2nc3c(c(N4CCC(N(C)C)C4)n2)CCC3c2ccc(F)cc2)ccc1-n1cnc(Cl)c1 (single isomer, unassigned) [Example 29B, N-(4-(4-chloro-1H-imidazol-1-yl)-3-methoxyphenyl)-4-(3-(dimethylamino)pyrrolidin-1-yl)-7-(4-fluorophenyl)-6,7-dihydro-5H-cyclopenta[d]pyrimidin-2-amine] |
| 7.00 to 8.00 | COCC(Nc1nc(Nc2ccc(-n3cnc(Cl)c3)c(OC)c2)nc2c1CCC2c1ccc(F)cc1)C1CC1 (single isomer, unassigned) [Example 45A, N2-(4-(4-chloro-1H-imidazol-1-yl)-3-methoxyphenyl)-N4-(1-cyclopropyl-2-methoxyethyl)-7-(4-fluorophenyl)-6,7-dihydro-5H-cyclopenta[d]pyrimidine-2,4-diamine] |
